# Laboratory results taken from ChEMBL document CHEMBL3507680, “University of Dundee, Gates Library screen for HepG2 cell viability”.
# Test: Human HepG2 cell viability assay in 384 well format
# Type: toxicity, cell-based
# Design: dose 125 nL, time 70.5 hour; cytotoxicity at 70.5 h: concentration not given beside the values
# Conditions: HepG2 cells, read-out: Inhibition
row,Structure (SMILES),cytotoxicity at 70.5 h [%]
1,CC(C)S(=O)(=O)CC(=O)N1CCCC(n2ccnc2)C1 (stereo unspecified),-0.47
2,Cn1cc(C(=O)N2CCN(c3ccc(F)cc3)CC2)ccc1=O,2.77
3,CC(C)(C)C(O)CN1CCN(Cc2ccc(C#N)cc2)CC1 (stereo unspecified),-6.98
4,CCCc1cc(C(=O)NC(c2ccccc2)c2n[nH]c(C)n2)[nH]n1 (stereo unspecified),-7.51
5,CCC(=O)N1CCN(C(=O)NCc2c(C)cc(C)cc2C)CC1,-11.6
6,NC(=O)Nc1cc(F)ccc1SCC(F)F,-8.84
7,CCC(CO)NC(=O)Nc1cc(F)ccc1SCC(F)F (stereo unspecified),-11.1
8,CN(c1cccnc1N1CCCC1)S(=O)(=O)c1cccnc1,3.33
9,Cc1cnn(-c2ccc(S(=O)(=O)N(C)CC(C)(CO)CO)cc2F)c1,17.1
10,COCCNC(=O)CCNc1ccc(Cl)cn1,-6.53
11,COc1cccc([S+]([O-])CC(=O)NCc2cc(F)cc(F)c2)c1 (stereo unspecified),-1.69
12,c1cnc2nc(N3CCc4c(ncn4C4CC4)C3)ccc2n1,-6.09
13,CN(CCN1CCN(c2ccccc2)CC1)C(=O)Nc1ccncc1,-3.63
14,Cc1nc(CN2CCCN(CC(=O)N(C)CCC#N)CC2)no1,-9.21
15,C[S+]([O-])c1ccc(CNc2ccc(F)cc2OC(F)F)cc1 (stereo unspecified),-0.988
16,OC1(CNCc2ccc(F)c(C(F)(F)F)c2)CCSCC1,-7.48
17,CCCC(C)N(C)Cc1nnc(-c2ccc(Br)s2)o1 (stereo unspecified),-4.09
18,Cc1cnn(C2CCCN(C(=O)CN(C)c3cnccn3)C2)c1 (stereo unspecified),-2.8
19,CCOCCC(=O)NC(Cc1ccc(C)cc1)c1ccccn1 (stereo unspecified),0.116
20,CCCn1nc(C(=O)NCCc2nnc3n2CCC3)ccc1=O,1.09
21,CC(C1CC1)N(C)Cc1nnc(-c2ccc(Br)s2)o1 (stereo unspecified),-2.75
22,CN(Cc1ccc(Cl)s1)C(=O)NCCC(=O)N1CCCCCC1,-4.9
23,Cc1ccc(S(=O)(=O)Nc2cccnc2O)cc1C,-0.331

row,Structure (SMILES),cytotoxicity at 70.5 h [%]
1,C=C(C)CN(CC)C(=O)c1cc(Cl)ccc1NS(C)(=O)=O,-0.344
2,O=C1NCCCCC1NC(=O)C1(c2cccc(C(F)(F)F)c2)CC1 (stereo unspecified),0.452
3,O=C(OCCNc1ncccn1)c1ccc(Br)s1,-0.709
4,COc1ccc(CCNC(=O)C2CCOC2)c(Cl)c1 (stereo unspecified),-2.75
5,CNC(=O)c1ccc(NC(=O)NC(C)CCc2cccn2C)c(C)c1 (stereo unspecified),-0.342
6,Cc1cc(C)n(C2CCCN(C(=O)CN(C)C3CC3)C2)n1 (stereo unspecified),-3.88
7,CC(C)CCN(C(=O)Nc1cccc(C(=O)N(C)C)c1)C1CC1,-7.58
8,Cc1nnc(C(C)N2CCCN(Cc3noc(C4CC4)n3)CC2)o1 (stereo unspecified),13.7
9,O=C(Cn1ccc(=O)[nH]c1=O)NCc1cccnc1OCC(F)(F)F,-10.1
10,Cn1cnnc1C1CCCN(c2nc3ccccc3o2)C1 (stereo unspecified),0.708
11,CC(C)CN(C(=O)Nc1cccc(C(=O)N(C)C)c1)C1CC1,-10.3
12,COc1ccc(OC)c(C(=O)Nc2cccnc2-n2cncn2)c1,-10.9
13,CC(C)c1ccc(S(=O)(=O)NC2CCN(CC(F)(F)F)C2)cc1 (stereo unspecified),16.7
14,CC(C)c1noc(C(C)N2CCN(Cc3noc(C4CC4)n3)CC2)n1 (stereo unspecified),-10.9
15,CCN(Cc1ccoc1)C(=O)Nc1ccccc1CN(C)C(C)=O,22
16,CC(C(=O)Nc1cccc(F)c1)N(C)CCN1CCOCC1 (stereo unspecified),-4.4
17,CCCc1cc(N(CCOC)CC(F)F)n2ncnc2n1,18.6
18,O=S(=O)(NC1CCN(CC(F)(F)F)C1)c1cc(F)cc(F)c1 (stereo unspecified),12.7
19,COCCN(CC(F)F)c1cc(COC)nc2ncnn12,-9.69
20,CCc1oc(C(=O)OC)cc1Cn1cccc(C(F)(F)F)c1=O,-1.62
21,COC(=O)c1sc(C(NC(=O)c2ccccc2)C2CC2)nc1C (stereo unspecified),-3.65
22,CSc1ncccc1C(=O)NC(C)c1cccc(N2CCOC2=O)c1 (stereo unspecified),-10.4
23,COc1cc2c(cc1CNCc1ccnc(-n3cccn3)c1)OC(C)C2 (stereo unspecified),-12.6
